We go through one compound from patent publication US12559481B2, “Quinoline derivatives” (ELANCO ANIMAL HEALTH GMBH, priority 2018, dated 2026).

As a reminder, the EC50 is the concentration that produces a half-maximal response. As usually defined, the mortality is the percentage killed.

SMILES strings stand for the structures.

In one assay the target is C. elegans Slo-1a (Caenorhabditis elegans, UniProt Q95V25).
For assay [1], the system named is Dirofilaria immitis third-stage larvae. As to the kind of experiment: In vitro assay 5: Dirofilaria immitis (DIROIM L4) larval motility. Particulars: 72 h, read-out: EC50 (reduction of motility).
In the next assay the test system is Haemonchus contortus. The experiment in a line: In vitro assay 7: Haemonchus contortus (HAEMCO) larval mortality. Conditions: 120 h, read-out: activity (larval mortality).
Assay [2] deals with Dirofilaria immitis microfilariae. As to the kind of experiment: In vitro assay 4: Dirofilaria immitis microfilariae (DIROIM L1) motility. Conditions: 72 h, read-out: EC50 (reduction of motility).
Assay [3] deals with Adult Nippostrongylus brasiliensis. As to the kind of experiment: In vitro assay 3: Nippostrongylus brasiliensis (NIPOBR), acetylcholine esterase readout. Particulars: read-out: activity (reduction of AChE compared to negative control). The method, then:
In Vitro Assay 3: Nippostrongylus Brasiliensis (NIPOBR)
Adult Nippostrongylus brasiliensis were washed with saline buffer containing 100 U/ml penicillin, 0.1 mg/ml streptomycin and 2.5 μg/ml amphotericin B. Test compounds were dissolved in DMSO and worms were incubated in medium in a final concentration of 10 μg/ml (10 ppm) respectively 1 μg/ml (1 ppm). An aliquot of the medium was used to determine the acetylcholine esterase activity in comparison to a negative control. The principle of measuring acetylcholine esterase as readout for anthelmintic activity was described in Rapson et al (1986) and Rapson et al (1987).

The target of a further assay is D. immitis Slo-1 (Dirofilaria immitis, UniProt I0DFK5). As to the kind of experiment: In vitro assay 2: D. immitis Slo-1, membrane potential in recombinant CHO cell line. Format: cell-based.
In another assay the test system is Cooperia curticei. As to the kind of experiment: In vitro assay 6: Cooperia curticei (COOPCU) larval mortality. Conditions: 120 h, read-out: activity (larval mortality).

Chain of C. elegans Slo-1a (Q95V25 whole entry): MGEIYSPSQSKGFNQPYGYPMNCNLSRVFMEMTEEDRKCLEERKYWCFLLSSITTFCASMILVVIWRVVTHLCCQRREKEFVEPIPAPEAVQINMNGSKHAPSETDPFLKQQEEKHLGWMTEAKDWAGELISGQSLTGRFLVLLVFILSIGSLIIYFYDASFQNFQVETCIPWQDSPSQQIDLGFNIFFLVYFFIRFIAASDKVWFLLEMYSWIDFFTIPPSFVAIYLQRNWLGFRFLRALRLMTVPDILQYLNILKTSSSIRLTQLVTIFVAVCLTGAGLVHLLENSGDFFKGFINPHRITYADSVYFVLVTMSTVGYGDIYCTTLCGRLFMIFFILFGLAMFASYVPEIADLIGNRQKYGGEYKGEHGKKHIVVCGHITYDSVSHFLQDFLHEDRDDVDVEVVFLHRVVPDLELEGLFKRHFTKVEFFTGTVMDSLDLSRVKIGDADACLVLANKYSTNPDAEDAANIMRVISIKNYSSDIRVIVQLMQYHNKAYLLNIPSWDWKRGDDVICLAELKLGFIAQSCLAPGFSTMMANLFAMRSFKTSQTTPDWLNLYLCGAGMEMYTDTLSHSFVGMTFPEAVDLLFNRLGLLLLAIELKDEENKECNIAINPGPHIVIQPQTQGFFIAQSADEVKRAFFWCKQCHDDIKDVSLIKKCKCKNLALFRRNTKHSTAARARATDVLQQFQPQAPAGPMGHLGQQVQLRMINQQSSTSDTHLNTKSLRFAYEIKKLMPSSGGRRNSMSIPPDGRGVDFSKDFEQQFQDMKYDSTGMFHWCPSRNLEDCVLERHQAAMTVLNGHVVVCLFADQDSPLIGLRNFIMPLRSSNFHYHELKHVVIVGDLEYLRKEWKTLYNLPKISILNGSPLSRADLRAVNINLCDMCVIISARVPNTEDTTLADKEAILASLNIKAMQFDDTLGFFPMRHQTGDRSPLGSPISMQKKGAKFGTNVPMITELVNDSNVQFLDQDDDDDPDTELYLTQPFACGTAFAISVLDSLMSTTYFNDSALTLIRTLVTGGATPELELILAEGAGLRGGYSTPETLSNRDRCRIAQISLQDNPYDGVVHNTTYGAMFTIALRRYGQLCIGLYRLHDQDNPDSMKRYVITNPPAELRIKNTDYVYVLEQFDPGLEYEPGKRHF
Chain of D. immitis Slo-1 (I0DFK5 1-1119): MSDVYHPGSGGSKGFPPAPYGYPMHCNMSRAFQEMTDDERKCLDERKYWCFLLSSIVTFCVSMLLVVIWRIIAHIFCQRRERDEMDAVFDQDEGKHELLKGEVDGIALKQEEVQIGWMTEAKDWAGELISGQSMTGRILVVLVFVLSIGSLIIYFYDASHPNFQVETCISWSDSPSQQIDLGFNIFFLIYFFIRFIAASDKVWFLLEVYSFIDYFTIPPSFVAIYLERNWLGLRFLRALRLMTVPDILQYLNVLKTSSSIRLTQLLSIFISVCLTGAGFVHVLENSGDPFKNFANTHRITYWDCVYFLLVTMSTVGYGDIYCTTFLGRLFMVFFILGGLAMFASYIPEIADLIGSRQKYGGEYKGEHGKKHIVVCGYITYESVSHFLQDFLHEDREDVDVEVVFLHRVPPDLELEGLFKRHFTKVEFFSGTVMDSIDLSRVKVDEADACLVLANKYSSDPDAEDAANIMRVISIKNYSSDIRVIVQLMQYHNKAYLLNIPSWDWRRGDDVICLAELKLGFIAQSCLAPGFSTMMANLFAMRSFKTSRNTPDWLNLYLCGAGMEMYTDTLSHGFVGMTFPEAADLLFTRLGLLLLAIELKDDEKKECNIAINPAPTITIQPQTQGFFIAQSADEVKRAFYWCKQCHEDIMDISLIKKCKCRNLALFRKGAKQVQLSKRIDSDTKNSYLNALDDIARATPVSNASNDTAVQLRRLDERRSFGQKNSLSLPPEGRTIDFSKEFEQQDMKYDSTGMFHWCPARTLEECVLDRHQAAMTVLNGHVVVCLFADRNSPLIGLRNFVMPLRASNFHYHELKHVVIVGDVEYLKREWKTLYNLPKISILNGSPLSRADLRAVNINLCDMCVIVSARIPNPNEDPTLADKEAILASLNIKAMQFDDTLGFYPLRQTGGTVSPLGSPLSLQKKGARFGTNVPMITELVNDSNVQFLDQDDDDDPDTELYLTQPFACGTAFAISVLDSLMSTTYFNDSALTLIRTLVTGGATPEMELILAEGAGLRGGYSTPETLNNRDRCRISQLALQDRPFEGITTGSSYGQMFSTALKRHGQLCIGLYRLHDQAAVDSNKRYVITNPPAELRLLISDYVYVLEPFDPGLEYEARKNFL
Experimental for C. elegans Slo-1a: In Vitro Assay 1: C. elegans Slo-1a—Action at a Recombinant C. elegans Cell Line
Generation of a Stable C. elegans CHO Cell Line
For transfection with plasmid DNA to express C. elegans Slo-1a (accession number AAL28102) CHO cells were passaged to 40% confluence before adding the transfection solution to the cell culture. The transfection solution included 300 μL OptiMEM (Life Technologies, Nr.: 31985), 2 μL (=6 μg) of plasmid DNA containing the C. elegans Slo 1a gene and 9 μL FugeneHD (Promega, Nr.: E2311), and was added to the cells prior to incubation for 48 hours at 37° C., 5% CO2. The transfection medium was exchanged for the selection medium which contains additional G418 (2 mg/ml, Invitrogen, Nr.: 10131) and the cells were seeded into 384 well plates (300 cells/well). After a few weeks, the remaining surviving cells were tested with a voltage sensitive dye (Membrane Potential Assay Kit, Molecular Devices Nr.: R8034) for K+ channel expression. Positive cell clones were purified by the limited dilution technique. For this the clone with the highest and most robust signal in the voltage sensitive dye assay was further subcloned (incubated) in 384 well plates (0.7 cells/well) in order to obtain clonal purity. This generated a final stable CHO cell line expressing the C. elegans Slo-1a.
Cells were cultured at 37° C., and 5% CO2 in MEMalpha with Glutamax I (Invitrogen, Nr.: 32571), supplemented with 10% (v/v) heat inactivated fetal bovine serum (Invitrogen, Nr.: 10500), G418 (1 mg/ml. Invitrogen. Nr.: 10131). Cells were detached using Accutase (Sigma. Nr.: A6964).
Membrane Potential Measurements
Laboratory compound testing was performed on 384-well microtiter plates (MTPs, Greiner, Nr.: 781092), 8000 cells/well were plated onto 384-well MTPs and cultured for 20 to 24 hours at 37° C., and 5% CO2. After removal of the cell culture medium, the cells were washed once with tyrode (150 mM NaCl, 0.3 mM KCl, 2 mM CaCl2. 1 mM MgCl2. 0.8 mM NaH2PO4, 5 mM Glucose, 28 mM Hepes, pH 7.4) and then loaded with the voltage sensitive dye of the Membrane Potential Assay Kit diluted in tyrode for 1 h at room temperature.
After starting the measurement of fluorescence using a FLIPR Tetra (Molecular Devices, Exc. 510-545 nm, Emm. 565-625 nm), test compounds were added followed by the addition of KCl tyrode (final assay concentration: 70 mM KCl, 2 mM CaCl2, 1 mM MgCl2, 0.8 mM NaH2PO4, 5 mM Glucose, 28 mM Hepes, pH 7.4, including the voltage sensitive dye). The measurement was completed after 7 minutes.
The data were evaluated by using the ActivityBase XLfit software (IDBS) for curve fitting and calculation of the half-maximal effective concentration (EC50) and are reported as negative decadic logarithm (pE50).
Experimental for Cooperia curticei: In Vitro Assay 6: Cooperia curticei (COOPCU)
Solvent: Dimethyl Sulfoxide
Approximately 40 nematode larvae (Cooperia curticei) are transferred into a test tube containing the compound solution.
After 5 days percentage of larval mortality is recorded. 100% efficacy means all larvae are killed; 0% efficacy means no larvae are killed.
Experimental for Haemonchus contortus: In Vitro Assay 7: Haemonchus contortus (HAEMCO)
Solvent: Dimethyl Sulfoxide
Approximately 40 larvae of the red stomach worm (Haemonchus contortus) are transferred into a test tube containing compound solution.
After 5 days the percentage of larval mortality is recorded. 100% efficacy means all larvae are killed, 0% efficacy means no larvae are killed.

For `O=C(N[C@H]1CCOc2ccccc21)c1cnc2c(-c3cc(F)cc(F)c3F)cccc2c1C1CCOCC1` [Example 2, N-[(4S)-3,4-Dihydro-2H-chromen-4-yl]-4-(tetrahydro-2H-pyran-4-yl)-8-(2,3,5-trifluorophenyl)quinoline-3-carboxamide], the half-maximal effective concentration (EC50) at C. elegans Slo-1a was less than 3.16 nM; in assay [1], less than 0.1 µg/mL; in assay [2], less than 0.1 µg/mL; at D. immitis Slo-1, 3.16 to 31.6 nM. Also, the mortality at 4 ppm in the assay on Haemonchus contortus was found to be 90%; in the assay with Cooperia curticei it was 100%. The mortality at 20 ppm with Haemonchus contortus stood at 90%. In assay [3] (1 μg/ml), the inhibition at 1 µg/mL was more than 80%. Moreover, the inhibition at 10 µg/mL in assay [3] (10 μg/ml) is more than 80%. The mortality at 0.8 ppm in the assay with Cooperia curticei is 100%.
